Assays:
CCK-B receptor = target: T1, CCK-B receptor (Mus musculus, UniProt P56481); assay: CCK-B receptor binding affinity (tritiated-pentagastrin displacement, mouse cerebral cortical membranes); conditions: 2 nM tritiated-pentagastrin, Ki by Cheng-Prusoff
T1 construct: from tissue; host or cells: mouse (male CFLP) cerebral cortex membranes
T1 sequence (P56481 1-453): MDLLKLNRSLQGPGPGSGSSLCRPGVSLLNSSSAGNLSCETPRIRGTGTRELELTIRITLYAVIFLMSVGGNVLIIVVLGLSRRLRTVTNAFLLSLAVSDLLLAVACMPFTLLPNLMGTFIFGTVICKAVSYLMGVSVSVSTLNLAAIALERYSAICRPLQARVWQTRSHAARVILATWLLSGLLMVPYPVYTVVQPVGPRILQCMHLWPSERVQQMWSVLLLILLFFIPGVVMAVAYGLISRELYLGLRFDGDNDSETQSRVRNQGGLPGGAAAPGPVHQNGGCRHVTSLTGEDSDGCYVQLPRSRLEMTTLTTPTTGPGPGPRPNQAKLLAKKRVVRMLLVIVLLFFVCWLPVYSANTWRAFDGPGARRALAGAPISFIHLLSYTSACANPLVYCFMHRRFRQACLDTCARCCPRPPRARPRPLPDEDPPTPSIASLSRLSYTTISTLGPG
Method: The biological activity of compounds of the present invention may be evaluated by employing an initial screening test which rapidly and accurately measures the binding of the tested compound to known CCK receptor sites. […] (See Hays et al, Neuropeptides 1:53-62, 1980; and Satuer et al, Science 208:1155-1156, 1980).
In this screening test, the cerebral cortices taken from male CFLP mice weighing between 30-40 g were dissected on ice, weighed, and homogenized in 10 volumes of 50 mM Tris-HCl buffer (pH 7.4 at 0-4° C.). The resulting suspension was centrifuged, the supernate was discarded, and the pellet was washed by resuspension in Tris-HCl buffer followed by recentrifugation. The final pellet was resuspended in 20 volumes of […] buffer (pH 7.2 at 23° C.) containing 130 mM NaCl, […], […], 1 […].
In saturation studies, cerebral cortical membranes were incubated at 23° C. for 120 minutes in a final volume of 500 μL of Hepes incubation buffer (pH 7.2) together with 0.2-20 nM tritiated—pentagastrin (Amersham International, England).
In the displacement experiments, membranes were incubated with a single concentration (2 nM) of ligand, together with increasing concentrations (10^11 to 10^14 M) of competitive test compound. In each case, the nonspecific binding was defined as that persisting in the presence of the unlabeled octapeptide CCK26-33 (10^−6M).
Following incubation, radioactivity bound to membranes was separated from that free in solution by rapid filtration through Whatman GF/B filters and washed three times with 4 mL of ice cold Tris-HCl buffer. Filters from samples incubated with tritiated-pentagastrin were placed in polyethylene vials with 4 mL of scintillation cocktail, and the radioactivity was estimated by liquid scintillation spectrometry (efficiency 47-52%).
The specific binding to CCK receptor sites was defined as the total bound tritiated-pentagastrin minus the amount of tritiated-pentagastrin bound in the presence of 10^−6 octapeptide, CCK26-33.
Saturation curves for specific tritiated-pentagastrin binding to mouse cortical membranes were analyzed by the methods of Scatchard (Ann. New York Acad. Sci. 51:660-672, 1949, and Hill (J. Physiol. 40:IV-VIII, 1910), to provide estimates for the maximum number of binding sites (Bmax) and the equilibrium dissociation constant (Ka).
In displacement experiments, inhibition curves were analyzed by either logit-log plots or the iterative curve fitting computer program ALLFIT (DeLean, Munson and Redbard, 1978) to provide estimates of the IC50 and nH (apparent Hill coefficient values).
The inhibition constant (Ki) of the test compound was then calculated according to the Cheng-Prusoff equation: [formula] where [L] is the concentration of radiolabel and Ka is the equilibrium dissociation constant.
The Ki values for several representative compounds of the present invention are present in Table I.
(§1) The following table represents the CCK-A and CCK-B receptor binding affinities of the compounds.
(§2) The testing procedures are disclosed in Hays et al, Neuropeptides 1:53-62, 1980; and Satuer et al, Science 208:1155-1156, 1980.

CCK-A receptor = target: T2, CCK-A receptor (Homo sapiens, UniProt P32238); assay: CCK-A receptor binding affinity
T2 sequence (P32238 1-428): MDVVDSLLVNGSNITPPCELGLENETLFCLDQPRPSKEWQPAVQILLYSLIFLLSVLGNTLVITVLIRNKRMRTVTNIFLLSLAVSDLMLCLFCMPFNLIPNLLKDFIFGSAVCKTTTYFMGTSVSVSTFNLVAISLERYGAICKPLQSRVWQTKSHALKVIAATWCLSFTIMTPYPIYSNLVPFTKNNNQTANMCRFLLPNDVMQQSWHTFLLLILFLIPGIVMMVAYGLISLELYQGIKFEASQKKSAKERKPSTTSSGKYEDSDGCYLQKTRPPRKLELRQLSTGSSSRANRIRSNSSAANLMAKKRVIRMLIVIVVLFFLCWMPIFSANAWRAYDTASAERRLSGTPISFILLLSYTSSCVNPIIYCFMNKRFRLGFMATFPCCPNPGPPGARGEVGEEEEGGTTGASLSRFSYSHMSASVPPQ
Excerpt: as §1, §2

Ki (CCK-B receptor) [µM] | Ki (CCK-A receptor) [µM] | SMILES
0.002 | 3.58 | CC(C)Oc1cccc(-n2c(NNC(=O)Nc3cccc(C(=O)OC(C)(C)C)c3)nc3ccccc3c2=O)c1 [No. 7]
0.016 | 3.43 | CC(C)Oc1cccc(-n2c(NNC(=O)Nc3ccc(Br)cc3)nc3ccccc3c2=O)c1 [No. 1, Hydrazinecarboxamide, N-(4-bromophenyl)-2-[3,4-dihydro-3-[3-(1-methylethoxy)-phenyl]-4-oxo-2-quinazolinyl]-]
0.0012 | 5.39 | CC(C)Oc1cccc(-n2c(NNC(=O)Nc3cccc(C#N)c3)nc3ccccc3c2=O)c1 [No. 14, Hydrazinecarboxamide, N-(3-cyanohenyl)-2-[3,4-dihydro-3-[3-(1-methylethoxoy)phenyl]-4-oxo-2-quinazolinyl]-]
0.0129 | 3.64 | CC(C)Oc1cccc(-n2c(NNC(=O)Nc3ccc(Cl)cc3)nc3ccccc3c2=O)c1 [No. 13, Hydrazinecarboxamide, N-(4-Chlorophenyl)-2-[3,4-dihydro-3-[3-(1-methylethoxy)phenyl]-4-oxo-2-quinazolinyl]]

More lines, now with the values behind:

SMILES | Ki (CCK-B receptor) [µM] | Ki (CCK-A receptor) [µM]
CCOC(=O)c1cccc(NC(=O)NNc2nc3ccccc3c(=O)n2-c2ccc(Cl)c(Cl)c2)c1 [No. 21] | 0.0534 | 1.76
CN(C)c1cccc(-n2c(NNC(=O)Nc3cccc(C#N)c3)nc3ccccc3c2=O)c1 [No. 40] | 0.0181 | 5.74
CC(C)Oc1cccc(-n2c(NNC(=O)NC3CCCCC3)nc3ccccc3c2=O)c1 [No. 15, Hydrazinecarboxamide, N-(cyclohexyl)-2-[3,4-dihydro-3-[3-(1-methylethoxy)phenyl]-4-oxo-2-quinazolinyl]-] | 0.105 | 17.7
